The source of these data is patent US11236069B2, “KIF18A inhibitors” (AMGEN INC., priority 2018, dated 2022).

Molecules are shown by their SMILES.

The target in this assay is Recombinant human KIF18A (1-467 His-tagged) protein (Homo sapiens (Human), UniProt Q8NI77). The assay is described as follows: KIF18A Enzyme Assay: microtubule-stimulated ATPase activity (ADP-Glo). To be noted: read-out: KIF18A ATPase IC50; 30 nM KIF18A, 30 μg/mL pig microtubules, ATP at Km 75 μM, ADP-Glo luminescence.
Sequence of Recombinant human KIF18A (1-467 His-tagged) protein (Q8NI77 1-467): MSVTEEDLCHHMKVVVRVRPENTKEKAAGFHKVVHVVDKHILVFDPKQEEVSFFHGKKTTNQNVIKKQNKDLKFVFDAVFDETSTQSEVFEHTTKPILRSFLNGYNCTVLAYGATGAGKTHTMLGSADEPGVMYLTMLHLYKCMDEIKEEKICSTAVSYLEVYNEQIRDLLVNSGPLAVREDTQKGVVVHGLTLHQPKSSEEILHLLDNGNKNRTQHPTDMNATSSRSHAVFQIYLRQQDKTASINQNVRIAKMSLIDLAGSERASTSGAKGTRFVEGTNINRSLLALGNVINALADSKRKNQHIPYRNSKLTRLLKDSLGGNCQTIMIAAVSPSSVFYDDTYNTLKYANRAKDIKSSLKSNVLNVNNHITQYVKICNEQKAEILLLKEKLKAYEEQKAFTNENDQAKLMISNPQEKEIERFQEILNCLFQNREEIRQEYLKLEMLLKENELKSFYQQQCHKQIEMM
Sequence of Recombinant human KIF18A (1-467 His-tagged) protein (P02550 whole entry partner): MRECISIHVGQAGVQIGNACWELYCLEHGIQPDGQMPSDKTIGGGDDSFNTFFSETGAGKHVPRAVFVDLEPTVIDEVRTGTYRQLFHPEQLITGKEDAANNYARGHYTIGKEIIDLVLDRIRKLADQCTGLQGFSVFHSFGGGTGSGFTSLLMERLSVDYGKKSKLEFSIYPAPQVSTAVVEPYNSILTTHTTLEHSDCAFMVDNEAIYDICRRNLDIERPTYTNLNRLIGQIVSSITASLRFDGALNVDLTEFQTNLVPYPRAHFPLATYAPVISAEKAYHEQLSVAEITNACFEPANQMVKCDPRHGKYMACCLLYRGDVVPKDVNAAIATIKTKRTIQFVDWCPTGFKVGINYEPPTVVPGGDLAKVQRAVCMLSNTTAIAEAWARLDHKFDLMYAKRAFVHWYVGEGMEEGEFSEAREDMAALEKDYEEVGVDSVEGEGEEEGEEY
Sequence of Recombinant human KIF18A (1-467 His-tagged) protein (P02554 whole entry partner): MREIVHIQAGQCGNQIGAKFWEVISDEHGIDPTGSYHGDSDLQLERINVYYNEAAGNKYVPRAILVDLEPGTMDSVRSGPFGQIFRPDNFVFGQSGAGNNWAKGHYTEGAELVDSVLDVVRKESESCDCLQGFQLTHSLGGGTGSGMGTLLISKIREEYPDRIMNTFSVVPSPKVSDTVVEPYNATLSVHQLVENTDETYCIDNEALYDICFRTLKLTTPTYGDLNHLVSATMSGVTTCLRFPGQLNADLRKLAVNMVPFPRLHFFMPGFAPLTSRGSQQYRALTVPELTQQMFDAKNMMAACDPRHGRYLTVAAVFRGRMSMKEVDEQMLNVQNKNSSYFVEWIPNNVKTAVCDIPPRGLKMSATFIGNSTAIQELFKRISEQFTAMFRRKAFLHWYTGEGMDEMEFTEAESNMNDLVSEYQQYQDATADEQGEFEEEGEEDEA
Excerpt: KIF18A Enzyme Assay: Microtubule-stimulated ATPase activity assay is used to measure KIF18A enzyme activity after treatment with compound. Compounds were 2-fold serially diluted in DMSO (Sigma Inc) over 22-point concentration range. […] The assay measures ADP formed from the ATPase reaction.
As usually defined, the IC50 is the concentration that inhibits the measured activity by half. Turning to `Cc1cc(NC(=O)c2ccc(NS(=O)(=O)CCO)cc2N2CCC3(CC2)CC3)nc(NC(C)(C)CO)n1` [Example 11-62, N-(2-((1-Hydroxy-2-methylpropan-2-yl)amino)-6-methylpyrimidin-4-yl)-4-((2-hydroxyethyl)sulfonamido)-2-(6-azaspiro[2.5]octan-6-yl)benzamide], the IC50 was 18 nM.
As to `Cc1cc(NC(=O)c2ccc(S(=O)(=O)C3CC3)cc2N2CCC3(CC2)CC3)nc(N2CCC(F)(F)CC2)n1` [Example 14-5, 4-(Cyclopropylsulfonyl)-N-(2-(4,4-difluoropiperidin-1-yl)-6-methylpyrimidin-4-yl)-2-(6-azaspiro[2.5]octan-6-yl)benzamide], the IC50 worked out at 826 nM.
With `Cc1cc(NC(=O)c2ccc(NS(=O)(=O)CCO)cc2N2CCC3(CC2)CC3)nc(N2CCC3C[C@]3(O)C2)n1` (stereo partly drawn) [Example 11-42, N-(2-((1R)-1-Hydroxy-3-azabicyclo[4.1.0]heptan-3-yl)-6-methylpyrimidin-4-yl)-4-((2-hydroxyethyl)sulfonamido)-2-(6-azaspiro[2.5]octan-6-yl)benzamide], the IC50 was 34 nM.
With `O=C(Nc1ccnc(N2CCC(F)(F)CC2)c1)c1ccc(NS(=O)(=O)CCO)cc1N1CCC2(CC1)CC2` [Example 6-29, N-(2-(4,4-Difluoropiperidin-1-yl)pyridin-4-yl)-4-((2-hydroxyethyl)sulfonamido)-2-(6-azaspiro[2.5]octan-6-yl)benzamide], the IC50 is 17 nM.
`Cc1cc(NC(=O)c2ccc(NS(=O)(=O)CCO)cc2N2CCC3(CC2)CC3)nc(N2CC(C(F)(F)F)C2)n1` [Example 11-12, 4-((2-Hydroxyethyl)sulfonamido)-N-(6-methyl-2-(3-(trifluoromethyl)azetidin-1-yl)pyrimidin-4-yl)-2-(6-azaspiro[2.5]octan-6-yl)benzamide]: the IC50 was 93 nM.
For the molecule `Cc1cc(NC(=O)c2ccc(NS(=O)(=O)C[C@@H](C)O)cc2N2CCC3(CC2)CC3)nc(N2CCO[C@H](C)C2)n1` [Example 6-27-1, 4-(((R)-2-Hydroxypropoyl)sulfonamido)-N-(6-methyl-2-((R)-2-methylmorpholino)pyrimidin-4-yl)-2-(6-azaspiro[2.5]octan-6-yl)benzamide], the IC50 came out at 162 nM.
